Target: xanthine oxidase (Homo sapiens, UniProt P47989)
Assay: Xanthine oxidase inhibitory activity measured by HPLC (xanthine content)
Type: biochemical
Conditions: Flazin samples 0.625-20.0 mg/ml; xanthine 50 μg/ml, xanthine oxidase 0.1 U, 30° C., 30 min; FIG. 1
Method: Xanthine oxidase inhibitory activity was measured as follows. Firstly, concentrations (0.625, 1.25, 2.5, 5.0, 10.0 and 20.0 mg/ml) of Flazin samples were prepared. Then, xanthine oxidase inhibitory activity was measured by HPLC by the following procedure. In a reaction tube, 880 μl of xanthine (50 μg/ml in 100 mM PBS) and 40 μl of 50 mM PBS or 40 μl of the Flazin samples were premixed, and 80 μl […] of xanthine oxidase (0.1 U) was added to initiate the reaction. The reaction was incubated at 30° C. for 30 min., after which an equal volume of absolute ethanol was added to terminate the reaction. The terminated reaction was filtered through a 0.22 μm membrane filter and the content of xanthine in the reactions was analyzed by HPLC. Xanthine oxidase inhibitory activity of the samples was calculated as follows: […]

Chain of xanthine oxidase (P47989 whole entry, species assumed): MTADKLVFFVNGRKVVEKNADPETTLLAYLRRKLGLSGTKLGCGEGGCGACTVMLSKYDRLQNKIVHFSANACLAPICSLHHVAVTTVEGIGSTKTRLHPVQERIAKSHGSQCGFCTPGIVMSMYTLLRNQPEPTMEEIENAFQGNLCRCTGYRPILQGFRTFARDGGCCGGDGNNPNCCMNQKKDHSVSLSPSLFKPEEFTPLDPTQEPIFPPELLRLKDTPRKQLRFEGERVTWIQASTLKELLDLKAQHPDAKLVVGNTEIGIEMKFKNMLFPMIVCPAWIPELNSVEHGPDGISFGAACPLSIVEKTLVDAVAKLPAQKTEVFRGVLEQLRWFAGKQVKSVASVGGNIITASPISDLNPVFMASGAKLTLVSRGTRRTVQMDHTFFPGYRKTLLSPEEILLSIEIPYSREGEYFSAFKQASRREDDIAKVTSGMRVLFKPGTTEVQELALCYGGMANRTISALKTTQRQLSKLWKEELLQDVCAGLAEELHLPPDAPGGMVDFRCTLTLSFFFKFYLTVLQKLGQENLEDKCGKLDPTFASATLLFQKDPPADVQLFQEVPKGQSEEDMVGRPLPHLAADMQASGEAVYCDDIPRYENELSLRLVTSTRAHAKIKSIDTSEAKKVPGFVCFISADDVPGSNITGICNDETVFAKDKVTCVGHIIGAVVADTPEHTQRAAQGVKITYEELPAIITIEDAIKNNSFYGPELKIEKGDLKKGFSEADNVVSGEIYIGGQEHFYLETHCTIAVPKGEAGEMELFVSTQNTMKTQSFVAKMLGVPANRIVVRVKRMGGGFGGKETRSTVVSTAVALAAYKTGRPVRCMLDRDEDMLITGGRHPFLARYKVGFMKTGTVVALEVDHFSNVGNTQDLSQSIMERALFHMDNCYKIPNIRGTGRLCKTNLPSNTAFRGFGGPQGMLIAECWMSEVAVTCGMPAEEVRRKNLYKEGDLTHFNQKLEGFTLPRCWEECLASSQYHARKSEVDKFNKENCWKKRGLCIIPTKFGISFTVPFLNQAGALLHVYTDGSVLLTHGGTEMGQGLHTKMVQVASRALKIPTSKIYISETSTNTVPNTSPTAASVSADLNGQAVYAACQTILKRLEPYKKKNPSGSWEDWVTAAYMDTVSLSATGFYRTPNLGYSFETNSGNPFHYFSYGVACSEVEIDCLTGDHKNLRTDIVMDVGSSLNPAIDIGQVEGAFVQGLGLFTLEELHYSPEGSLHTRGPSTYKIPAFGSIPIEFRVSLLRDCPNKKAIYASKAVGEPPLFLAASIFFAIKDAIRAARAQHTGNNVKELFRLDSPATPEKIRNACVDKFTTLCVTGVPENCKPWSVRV

IC50: ~32.1 mM
Structure (SMILES): O=C(O)c1cc2c([nH]c3ccccc32)c(-c2ccc(CO)o2)n1 [Flazin, 1-[5-(hydroxymethyl)furan-2-yl]-9H-pyrido[3,4-b]indole-3-carboxylic acid]

— patent US20170165239A1, “USE OF BETA-CARBOLINE ALKALOID IN INHIBITING XANTHINE OXIDASE ACTIVITY” (Food Industry Research And Development Institute, priority 2015, published 2017)
